Here are results for 16 compounds from patent US20170094972A1, “Compounds and Compositions Having Knock-Down Activity Against Insect Pests” (priority 2015, published 2017).

Assay [1] relates to Aedes aegypti. Kind of assay: 12 well plate knockdown test. The class given is in vivo. The note with it: 1 h, read-out: Aedes aegypti 1 hour % KD; for pest or weed control at 0.2 ppm: Rate 0.2 PPM; for pest or weed control at 2 ppm: Rate 2 PPM; for pest or weed control at 20 ppm: Rate 20 PPM; for pest or weed control at 200 ppm: Rate 200 PPM. As for the experimental part: (§1) The individual wells of a twelve (12) well tissue culture plates were treated with 100 μl of an ethanol solution containing a test compound at a defined concentration. Once the deposits were dry, five non-blood fed adult female Aedes aegypti or Anopheles stephensi (between two to five day old) were added to each well, and sustained with a 10% sucrose solution in a cotton wool plug. Assessment of the knockdown after 1 hour was carried out. Where multiple replicates of a treatment have been undertaken, the mean of those replicates is reported.

The test system of assay [2] is Anopheles stephensi. Kind of assay: 12 well plate knockdown test. Type of assay: in vivo. The settings on record: 1 h, read-out: Anopheles stephensi 1 hour % KD; for pest or weed control at 0.2 ppm: Rate 0.2 PPM; for pest or weed control at 2 ppm: Rate 2 PPM; for pest or weed control at 20 ppm: Rate 20 PPM; for pest or weed control at 200 ppm: Rate 200 PPM. As for the experimental part: as §1

With `CN(C)C(=O)c1cnccc1C(F)(F)F` [I.4], in assay [1], the pest or weed control at 0.2 ppm worked out at 100%, the pest or weed control at 2 ppm came out at 100%, the pest or weed control at 20 ppm came to 100% and the pest or weed control at 200 ppm came out at 100%. In assay [2], the pest or weed control at 0.2 ppm came to 40%, the pest or weed control at 2 ppm worked out at 100%, the pest or weed control at 20 ppm is 100% and the pest or weed control at 200 ppm is 100%.

For the compound `N/C(=N/C(=O)c1cnccc1C(F)(F)F)C1CC1` [I.19], in assay [1], the pest or weed control at 0.2 ppm stood at 0%, the pest or weed control at 2 ppm came to 100%, the pest or weed control at 20 ppm worked out at 100% and the pest or weed control at 200 ppm came to 100%. In assay [2], the pest or weed control at 0.2 ppm was 40%, the pest or weed control at 2 ppm came to 60%, the pest or weed control at 20 ppm is 100% and the pest or weed control at 200 ppm is 100%.

Consider `CCCN1CN=C(c2cnccc2C(F)(F)F)OC1=O` [I.16], for which, in assay [1], the pest or weed control at 0.2 ppm was found to be 0%, the pest or weed control at 2 ppm was determined as 60%, the pest or weed control at 20 ppm came out at 60% and the pest or weed control at 200 ppm turned out to be 100%. For the same compound, in assay [2], the pest or weed control at 0.2 ppm was found to be 0%, the pest or weed control at 2 ppm is 0%, the pest or weed control at 20 ppm amounted to 0% and the pest or weed control at 200 ppm stood at 0%.

Turning to `C[Si](C)(C)CNC(=O)c1cnccc1C(F)(F)F` [I.25], in assay [1], the pest or weed control at 0.2 ppm was determined as 100%, the pest or weed control at 2 ppm turned out to be 100%, the pest or weed control at 20 ppm was found to be 100% and the pest or weed control at 200 ppm turned out to be 100%. In addition, in assay [2], the pest or weed control at 0.2 ppm turned out to be 80%, the pest or weed control at 2 ppm worked out at 80%, the pest or weed control at 20 ppm came to 100% and the pest or weed control at 200 ppm worked out at 100%.

Regarding `CCNNC(=O)c1cnccc1C(F)(F)F` [I.27], in assay [1], the pest or weed control at 0.2 ppm came to 0%, the pest or weed control at 2 ppm was found to be 100%, the pest or weed control at 20 ppm is 100% and the pest or weed control at 200 ppm turned out to be 100%. In assay [2], the pest or weed control at 0.2 ppm came out at 0%, the pest or weed control at 2 ppm came out at 0%, the pest or weed control at 20 ppm was 100% and the pest or weed control at 200 ppm turned out to be 100%.

With `CC(NC(=O)c1cnccc1C(F)(F)F)C(N)=S` (centres unmarked) [I.26], in assay [1], the pest or weed control at 0.2 ppm was 0%, the pest or weed control at 2 ppm is 100%, the pest or weed control at 20 ppm is 100% and the pest or weed control at 200 ppm worked out at 100%. Further, in assay [2], the pest or weed control at 0.2 ppm came to 0%, the pest or weed control at 2 ppm worked out at 0%, the pest or weed control at 20 ppm was 100% and the pest or weed control at 200 ppm worked out at 100%.

As to `CN(OC(=O)Oc1ccccc1)C(=O)c1cnccc1C(F)(F)F` [I.28], in assay [1], the pest or weed control at 0.2 ppm stood at 20%, the pest or weed control at 2 ppm amounted to 40%, the pest or weed control at 20 ppm turned out to be 60% and the pest or weed control at 200 ppm was determined as 100%. Also, in assay [2], the pest or weed control at 0.2 ppm was 0%, the pest or weed control at 2 ppm turned out to be 0%, the pest or weed control at 20 ppm turned out to be 40% and the pest or weed control at 200 ppm came to 100%.

For the compound `CCOC(=O)ON(C)C(=O)c1cnccc1C(F)(F)F` [I.9], in assay [1], the pest or weed control at 0.2 ppm came out at 100%, the pest or weed control at 2 ppm was found to be 100%, the pest or weed control at 20 ppm amounted to 100% and the pest or weed control at 200 ppm came out at 100%. Besides, in assay [2], the pest or weed control at 0.2 ppm was 20%, the pest or weed control at 2 ppm was found to be 100%, the pest or weed control at 20 ppm came out at 100% and the pest or weed control at 200 ppm came to 100%.

For `O=c1nc(-c2cnccc2C(F)(F)F)os1` [I.5], in assay [1], the pest or weed control at 0.2 ppm is 100%, the pest or weed control at 2 ppm came to 100%, the pest or weed control at 20 ppm was 100% and the pest or weed control at 200 ppm was 100%. In assay [2], the pest or weed control at 0.2 ppm stood at 60%, the pest or weed control at 2 ppm turned out to be 100%, the pest or weed control at 20 ppm was 100% and the pest or weed control at 200 ppm stood at 100%.

With `CO/N=C(\C)CNC(=O)c1cnccc1C(F)(F)F` [I.18], in assay [1], the pest or weed control at 0.2 ppm is 40%, the pest or weed control at 2 ppm came to 100%, the pest or weed control at 20 ppm turned out to be 100% and the pest or weed control at 200 ppm is 100%. Moreover, in assay [2], the pest or weed control at 0.2 ppm was determined as 0%, the pest or weed control at 2 ppm is 0%, the pest or weed control at 20 ppm turned out to be 0% and the pest or weed control at 200 ppm amounted to 40%.

`CC(C)n1nc(-c2cnccc2C(F)(F)F)oc1=O` [I.7]: in assay [1], the pest or weed control at 0.2 ppm was found to be 100%, the pest or weed control at 2 ppm was 100%, the pest or weed control at 20 ppm turned out to be 100% and the pest or weed control at 200 ppm amounted to 100%. Moreover, in assay [2], the pest or weed control at 0.2 ppm is 0%, the pest or weed control at 2 ppm was 0%, the pest or weed control at 20 ppm turned out to be 0% and the pest or weed control at 200 ppm is 20%.

With `O=C(NCc1ccc(Cl)cc1)c1cnccc1C(F)(F)F` [I.2], in assay [1], the pest or weed control at 0.2 ppm is 100%, the pest or weed control at 2 ppm is 100%, the pest or weed control at 20 ppm amounted to 100% and the pest or weed control at 200 ppm turned out to be 100%. In addition, in assay [2], the pest or weed control at 0.2 ppm is 0%, the pest or weed control at 2 ppm was found to be 60%, the pest or weed control at 20 ppm was found to be 80% and the pest or weed control at 200 ppm is 100%.

As to `CN(OC(=O)OCc1ccccc1)C(=O)c1cnccc1C(F)(F)F` [I.8], in assay [1], the pest or weed control at 0.2 ppm is 100%, the pest or weed control at 2 ppm was 100%, the pest or weed control at 20 ppm was 100% and the pest or weed control at 200 ppm turned out to be 100%. For the same compound, in assay [2], the pest or weed control at 0.2 ppm amounted to 60%, the pest or weed control at 2 ppm was determined as 100%, the pest or weed control at 20 ppm was determined as 100% and the pest or weed control at 200 ppm came to 100%.

For `C=CCONC(=O)c1cnccc1C(F)(F)F` [I.17], in assay [1], the pest or weed control at 0.2 ppm came out at 0%, the pest or weed control at 2 ppm amounted to 0%, the pest or weed control at 20 ppm was found to be 0% and the pest or weed control at 200 ppm was determined as 0%. Besides, in assay [2], the pest or weed control at 0.2 ppm came to 0%, the pest or weed control at 2 ppm stood at 0%, the pest or weed control at 20 ppm worked out at 20% and the pest or weed control at 200 ppm amounted to 100%.

With `N/C(=N/C(=O)c1cnccc1C(F)(F)F)c1ncccn1` [I.14], in assay [1], the pest or weed control at 0.2 ppm worked out at 0%, the pest or weed control at 2 ppm amounted to 100%, the pest or weed control at 20 ppm stood at 100% and the pest or weed control at 200 ppm is 100%. In addition, in assay [2], the pest or weed control at 0.2 ppm was found to be 40%, the pest or weed control at 2 ppm turned out to be 40%, the pest or weed control at 20 ppm was 100% and the pest or weed control at 200 ppm amounted to 100%.

As to `O=C(NC(=O)c1cnccc1C(F)(F)F)c1cccs1` [I.13], in assay [1], the pest or weed control at 0.2 ppm is 0%, the pest or weed control at 2 ppm worked out at 100%, the pest or weed control at 20 ppm worked out at 100% and the pest or weed control at 200 ppm was 100%. Also, in assay [2], the pest or weed control at 0.2 ppm is 0%, the pest or weed control at 2 ppm is 60%, the pest or weed control at 20 ppm is 100% and the pest or weed control at 200 ppm came to 100%.
